# Measured values: ChEMBL document CHEMBL1201862, “PubChem BioAssay data set” (2004)
#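 Five concentrations, 48 hours, 96-well plates. GI50 = concentration required for 50% inhibition of growth.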 The source made the active and inactive calls. Rule as the data show it: active = GI50 up to about 1.1 µM and inactive = higher.
# Columns and labels:
# Assay in all cases: growth of human tumour cells (NCI), 48 h
# [1] = tested on: 786-0
# [2] = tested on: A549
# [3] = tested on: HCC 2998
# [4] = tested on: HCT-15
# [5] = tested on: HL-60
# [6] = tested on: HOP-62
# [7] = tested on: IGROV-1
# [8] = tested on: KM12
# [9] = tested on: LOX IMVI
# [10] = tested on: M14
# [11] = tested on: Malme-3M
# [12] = tested on: NCI-H23
# [13] = tested on: NCI-H522
# [14] = tested on: OVCAR-8
# [15] = tested on: RXF 393
# [16] = tested on: SF-539
# [17] = tested on: SN12C
# [18] = tested on: UACC-62
# [19] = tested on: HOP-92
Structure (SMILES),GI50 [1],GI50 [2],GI50 [3],GI50 [4],GI50 [5],GI50 [6],GI50 [7],GI50 [8],GI50 [9],GI50 [10],GI50 [11],GI50 [12],GI50 [13],GI50 [14],GI50 [15],GI50 [16],GI50 [17],GI50 [18],GI50 [19]
COc1ccc(CNc2cnc3cc(N)ccc3n2)cc1,> 100 µM (inactive),> 100 µM (inactive),> 100 µM (inactive),> 100 µM,77.1 µM (inactive),> 100 µM (inactive),> 100 µM (inactive),> 100 µM (inactive),> 100 µM (inactive),> 100 µM (inactive),> 100 µM (inactive),> 100 µM (inactive),> 100 µM (inactive),> 100 µM (inactive),> 100 µM (inactive),> 100 µM (inactive),> 100 µM (inactive),> 100 µM (inactive),–
C=C(C)[C@H]1CC[C@@]2(C)C(C1)[C@H](C)CC[C@@H]2O (stereo partly drawn),> 100 µM (inactive),> 100 µM (inactive),> 100 µM (inactive),> 100 µM,–,> 100 µM (inactive),> 100 µM (inactive),> 100 µM (inactive),> 100 µM (inactive),> 100 µM (inactive),> 100 µM (inactive),> 100 µM (inactive),47 µM (inactive),> 100 µM (inactive),> 100 µM (inactive),> 100 µM (inactive),> 100 µM (inactive),> 100 µM (inactive),> 100 µM (inactive)
CCN/C(=N\Nc1ccc([N+](=O)[O-])cc1)P(=O)(OC(C)C)OC(C)C,> 100 µM (inactive),> 100 µM (inactive),> 100 µM (inactive),> 100 µM,> 100 µM (inactive),95.9 µM (inactive),–,> 100 µM (inactive),> 100 µM (inactive),> 100 µM (inactive),51.2 µM (inactive),> 100 µM (inactive),> 100 µM (inactive),> 100 µM (inactive),–,> 100 µM (inactive),> 100 µM (inactive),64 µM (inactive),66.5 µM (inactive)
CC1(C)S[C@H](c2ccccc2C(=O)O)N[C@@H]1CC(=O)O,> 100 µM (inactive),> 100 µM (inactive),–,> 100 µM,> 100 µM (inactive),> 100 µM (inactive),> 100 µM (inactive),> 100 µM (inactive),> 100 µM (inactive),> 100 µM (inactive),–,> 100 µM (inactive),> 100 µM (inactive),> 100 µM (inactive),> 100 µM (inactive),> 100 µM (inactive),> 100 µM (inactive),> 100 µM (inactive),–
O=C(/C=C/c1ccccc1Cl)c1ccccc1Cl,15.2 µM (inactive),30 µM (inactive),21.6 µM (inactive),14.8 µM,22.4 µM (inactive),47.8 µM (inactive),17.3 µM (inactive),15.5 µM (inactive),–,22.3 µM (inactive),31.8 µM (inactive),21.2 µM (inactive),19 µM (inactive),17.3 µM (inactive),–,17.6 µM (inactive),20.6 µM (inactive),16.7 µM (inactive),17.1 µM (inactive)
COC(=O)C1Cc2c([nH]c3ccccc23)C(c2ccccc2O)N1 (stereo not drawn),69.8 µM (inactive),43 µM (inactive),60.1 µM (inactive),30.5 µM,28.5 µM (inactive),–,33.8 µM (inactive),60.3 µM (inactive),60.8 µM (inactive),93.8 µM (inactive),> 100 µM (inactive),52 µM (inactive),32.4 µM (inactive),68.1 µM (inactive),–,34.1 µM (inactive),55.2 µM (inactive),35.4 µM (inactive),> 100 µM (inactive)
c1ccc(C2=NN3CN(N2)c2ccccc2OCCCOc2ccccc23)cc1,> 100 µM (inactive),> 100 µM (inactive),–,> 100 µM,48.9 µM (inactive),> 100 µM (inactive),> 100 µM (inactive),> 100 µM (inactive),> 100 µM (inactive),> 100 µM (inactive),> 100 µM (inactive),> 100 µM (inactive),34.7 µM (inactive),> 100 µM (inactive),> 100 µM (inactive),> 100 µM (inactive),> 100 µM (inactive),> 100 µM (inactive),–
O=C(c1ccccc1)C1CCCCN1C(=O)c1ccccc1 (stereo not drawn),> 100 µM (inactive),> 100 µM (inactive),> 100 µM (inactive),> 100 µM,> 100 µM (inactive),> 100 µM (inactive),> 100 µM (inactive),> 100 µM (inactive),–,> 100 µM (inactive),> 100 µM (inactive),–,> 100 µM (inactive),> 100 µM (inactive),> 100 µM (inactive),> 100 µM (inactive),> 100 µM (inactive),25.7 µM (inactive),–
C=CCNC1=NC(=O)C(CC(=O)Nc2ccc([N+](=O)[O-])cc2[N+](=O)[O-])S1 (stereo not drawn),> 100 µM (inactive),> 100 µM (inactive),> 100 µM (inactive),> 100 µM,52.5 µM (inactive),> 100 µM (inactive),> 100 µM (inactive),> 100 µM (inactive),–,> 100 µM (inactive),> 100 µM (inactive),> 100 µM (inactive),> 100 µM (inactive),> 100 µM (inactive),> 100 µM (inactive),> 100 µM (inactive),> 100 µM (inactive),> 100 µM (inactive),85.7 µM (inactive)
CC[C@@]12N=C(N(C)C)C[C@]1(O)ON=C2C,> 100 µM (inactive),> 100 µM (inactive),> 100 µM (inactive),> 100 µM,> 100 µM (inactive),–,> 100 µM (inactive),> 100 µM (inactive),–,> 100 µM (inactive),> 100 µM (inactive),> 100 µM (inactive),> 100 µM (inactive),> 100 µM (inactive),> 100 µM (inactive),> 100 µM (inactive),> 100 µM (inactive),–,> 100 µM (inactive)
N#CC1C(C#N)C2(c3ccccc3)C(c3ccccc3)=NN(c3ccccc3)CC12 (stereo not drawn),> 100 µM (inactive),> 100 µM (inactive),> 100 µM (inactive),> 100 µM,> 100 µM (inactive),–,> 100 µM (inactive),> 100 µM (inactive),> 100 µM (inactive),> 100 µM (inactive),> 100 µM (inactive),–,–,> 100 µM (inactive),> 100 µM (inactive),> 100 µM (inactive),> 100 µM (inactive),94.8 µM (inactive),–
Cc1nc2ccccc2c(=O)n1/N=C(\N=N\c1ccccc1Cl)c1ccccc1,19 µM (inactive),48.6 µM (inactive),–,22.2 µM,15.3 µM (inactive),19.1 µM (inactive),19.4 µM (inactive),–,24.8 µM (inactive),18.1 µM (inactive),–,44.5 µM (inactive),19.1 µM (inactive),31.3 µM (inactive),23 µM (inactive),18.7 µM (inactive),–,17.5 µM (inactive),36.5 µM (inactive)
O=C1C2C=CC(C2)C(c2ccc(O)cc2)N1O (stereo not drawn),> 100 µM (inactive),> 100 µM (inactive),> 100 µM (inactive),–,> 100 µM (inactive),> 100 µM (inactive),> 100 µM (inactive),> 100 µM (inactive),–,> 100 µM (inactive),> 100 µM (inactive),> 100 µM (inactive),> 100 µM (inactive),> 100 µM (inactive),–,–,> 100 µM (inactive),> 100 µM (inactive),> 100 µM (inactive)
COC(=O)[C@@]12C3=NO[C@]1(C(=O)OC)C(O[Si](C)(C)C(C)(C)C)[C@H]1OC(C)(C)O[C@H]1[C@@H]2C(OCc1ccccc1)CC3 (stereo partly drawn),70.5 µM (inactive),34 µM (inactive),63.1 µM (inactive),> 100 µM,6.49 µM (inactive),–,42.7 µM (inactive),28.3 µM (inactive),69 µM (inactive),26.9 µM (inactive),–,80.4 µM (inactive),–,92.5 µM (inactive),–,59.2 µM (inactive),89.7 µM (inactive),41.7 µM (inactive),2.75 µM (inactive)
COC(=O)C(C(=O)C(=O)Nc1cccc(C)c1)C1=NC(N)SS1 (stereo not drawn),> 100 µM (inactive),> 100 µM (inactive),> 100 µM (inactive),> 100 µM,> 100 µM (inactive),> 100 µM (inactive),> 100 µM (inactive),> 100 µM (inactive),> 100 µM (inactive),> 100 µM (inactive),> 100 µM (inactive),> 100 µM (inactive),> 100 µM (inactive),> 100 µM (inactive),> 100 µM (inactive),> 100 µM (inactive),> 100 µM (inactive),> 100 µM (inactive),–
COc1cc(/C=C\c2ccc(O)cc2)cc(OC)c1OC,8.59 µM (inactive),6.1 µM (inactive),> 23.3 µM (inactive),0.518 µM,10.3 µM (inactive),–,5.24 µM (inactive),0.883 µM (active),5.19 µM (inactive),22.2 µM (inactive),4.25 µM (inactive),0.505 µM (active),2.88 µM (inactive),6.95 µM (inactive),3.78 µM (inactive),2.82 µM (inactive),4.9 µM (inactive),3.37 µM (inactive),0.293 µM (active)
Cn1cnc([N+](=O)[O-])c1Sc1nc2ccccc2s1,11.8 µM (inactive),10.2 µM (inactive),10.2 µM (inactive),2.99 µM,–,25.2 µM (inactive),11.9 µM (inactive),15.1 µM (inactive),15.3 µM (inactive),15.2 µM (inactive),1.84 µM (inactive),10.9 µM (inactive),–,4.07 µM (inactive),2.15 µM (inactive),12.5 µM (inactive),4.33 µM (inactive),11.9 µM (inactive),2.77 µM (inactive)
